From PubChem BioAssay AID463199 (Broad Institute, 2010)
Calls of active or inactive are those of the source.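 How the source made its calls: active means AC50, the dose giving half-maximal effect, exceeds a fixed cutoff for a compound that rescues yeast growth under heat; inactive means the rest, inconclusive results apart.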

Tested on: S. cerevisiae Burl-1 ts mutant growth, BacTiter-Glo, 38.5C 24 h
Assay: restored growth of temperature-sensitive Burl-1 yeast – whole organism, S. cerevisiae, Burl-1 ts mutant, luminescence, counter-screen for SUMOylation pathway inhibitor project, dose response (AID 463199)

SMILES	AC50
CC(C)n1c(CN(C)c2ccccc2)nc2ccccc21	> 42 µM (inactive)
COc1cccc(-c2nn(-c3ccccc3)cc2/C=C(/NC(=O)c2ccccc2)C(=O)O)c1	> 42 µM (inactive)
CS(=O)(=O)c1ccc(Cl)c(NC(=O)c2ccc3ccccc3c2)c1	> 42 µM (inactive)
COc1ccc(NC(=O)CN(C)C(=O)/C=C/c2cn(-c3ccccc3)nc2-c2ccc(F)cc2)cc1	> 42 µM (inactive)
CN1/C(=C\C(=O)COC(=O)c2ccc([N+](=O)[O-])o2)C(C)(C)c2ccccc21	> 42 µM (inactive)
Cc1ccc(NC2CC(=O)N(c3ccc(N4CCCCC4)cc3)C2=O)cc1 (stereo unspecified)	> 21 µM (inactive)
COc1ccc2c(c1)OC[C@H]1[C@H]2N2C(=O)c3cc(Br)ccc3NC(=O)[C@@]2(C)[C@H]1c1ccccc1	> 42 µM (inactive)
CCCC(O)(c1ccc(Br)cc1)C(CN1CCOCC1)c1ccc(Cl)cc1 (stereo unspecified)	> 42 µM (inactive)
O=C1c2cc(N3CCCC3)c([N+](=O)[O-])cc2C(=O)N1c1ccccc1	> 42 µM (inactive)
Cc1nc2nc[nH]n2c(=O)c1NS(=O)(=O)c1ccc([N+](=O)[O-])cc1	> 42 µM (inactive)
COc1cc(OC)c(C(=O)N2CCN(c3ccccn3)CC2)cc1OC	> 42 µM (inactive)
CCN1C(=NCC(C)C)N[C@@H](c2cccc(C(F)(F)F)c2)C(C(=O)OC)=C1C	> 42 µM (inactive)
O=C(COC(=O)Cc1ccsc1)NC1CCCCCC1	> 42 µM (inactive)
O=c1[nH]nc(Cc2ccc(-c3ccccc3Cl)o2)c2ccccc12	> 42 µM (inactive)
CC(=O)/C=C/n1c(=S)oc2ccccc21	> 42 µM (inactive)
COc1ccc(NC(=O)Nc2ccccc2C(=O)N2CCCC2)cc1	1.83 µM
O=[N+]([O-])c1ccccc1CN1CC=C(c2ccc(F)cc2)CC1	> 42 µM (inactive)
COc1ccc(/C=N/NC(=O)c2nnn(-c3nonc3N)c2-c2cccs2)cc1OC	> 42 µM (inactive)
CCOC(=O)C1=C[C@]2(CC)CCCN3CCc4c(n1c1ccccc41)[C@@H]32	> 42 µM (inactive)
CCS(=O)c1ccccc1C(=O)O (stereo unspecified)	> 42 µM (inactive)
On1c(-c2ccccc2Cl)nc2ncccc21	> 42 µM (inactive)
O=C(COc1cccc2cccnc12)N1CCc2ccccc21	> 42 µM (inactive)
Cc1ccnc(NC(=O)CNC(=O)c2ccc(Br)o2)c1	> 42 µM (inactive)
Cc1ccc(N/C=C(\C#N)c2ccc(OCCCF)cc2)cc1	> 42 µM (inactive)

SMILES	AC50
COCCCNS(=O)(=O)c1ccc(Oc2ncc(C(F)(F)F)cc2Cl)cc1	> 42 µM (inactive)
COc1ccc(OC)c(CCNC(=O)c2ccc3c(c2)N(Cc2ccc(F)cc2)CCS3)c1	> 42 µM (inactive)
O=C(c1cnn2c(C(F)(F)F)cc(-c3ccco3)nc12)N1CCCc2ccccc21	> 42 µM (inactive)
O=C(C1CCCN(S(=O)(=O)c2cnc[nH]2)C1)N1CCN(c2ccc(Cl)cc2)CC1 (stereo unspecified)	> 42 µM (inactive)
COC(=O)C(NC(C)=O)(Nc1nc2ccc(S(C)(=O)=O)cc2s1)C(F)(F)F (stereo unspecified)	> 42 µM (inactive)
O=S(=O)(NCc1ccc(Cl)cc1)c1cnc[nH]1	> 42 µM (inactive)
CCCCCNC(=O)c1ccc2c(=O)n(CC3CCCO3)c(=O)[nH]c2c1 (stereo unspecified)	7.49 µM
CC1CC(c2ccccc2)NS(=O)(=O)O1 (stereo unspecified)	> 42 µM (inactive)
O=C(Cc1ccc(F)cc1)Nc1nc(-c2ccc(F)cc2)cs1	> 42 µM (inactive)
Cc1cccc(C(=O)NCC(=O)N2CCN(c3ccc(Cl)cc3)CC2)c1	> 42 µM (inactive)
Cc1cc(C)cc(NC(=O)CS(=O)(=O)c2ccccc2)c1	> 42 µM (inactive)
Nc1ccnc(=O)[nH]1	> 42 µM (inactive)
O=C(N/N=C/c1ccc(Cl)s1)c1ccccc1[N+](=O)[O-]	> 42 µM (inactive)
O=c1nc2ccc(Cl)cn2c2ccc(S(=O)(=O)N3CCOCC3)cc12	> 42 µM (inactive)
COc1ccc(N2CCN(C(=O)CNC(=O)Cc3ccc(Cl)cc3)CC2)cc1	> 42 µM (inactive)
CN(C)c1ccc(C(CNS(=O)(=O)c2ccc([N+](=O)[O-])cc2)N2CCOCC2)cc1 (stereo unspecified)	> 42 µM (inactive)
CC1(C)CCc2cc(CN3CCN(c4ccccn4)CC3)ccc2O1	> 42 µM (inactive)
COc1ccc2c(C(=O)CN3CC(C)OC(C)C3)c[nH]c2c1 (stereo unspecified)	> 42 µM (inactive)
Cc1ccc(N(CC(=O)Nc2cccc(C)c2)S(=O)(=O)c2cccc3nonc23)cc1	> 21 µM (inactive)
COC(=O)c1ccc(CSc2nc3ccccc3c(=O)n2CC(C)C)o1	> 42 µM (inactive)
CCN(CC)S(=O)(=O)c1ccc(N2CCCC2)c(C(=O)OCC(=O)Nc2cc(C)on2)c1	> 42 µM (inactive)
Cc1ccc(CC(=O)O/N=C(\N)c2cccc([N+](=O)[O-])c2)cc1	> 42 µM (inactive)
CCOc1cc(C(=S)N2CCOCC2)ccc1OC(=O)c1ccc(C)cc1	> 42 µM (inactive)
CCOC(=O)c1sc2ncn(C(CC)C(=O)OCC)c(=O)c2c1C (stereo unspecified)	> 42 µM (inactive)

SMILES	AC50
Cc1ccc(N(CC(=O)NCCc2ccc(Cl)cc2)S(=O)(=O)c2c(C)noc2C)cc1	> 42 µM (inactive)
Cc1ccc(-n2nnnc2SCC#N)cc1	> 42 µM (inactive)
Cc1nc(NC(=O)CSc2nc(N)cc(N)n2)sc1C	> 42 µM (inactive)
O=C(CCCC(=O)N/N=C/c1ccccc1C(=O)O)N/N=C/c1ccccc1C(=O)O	> 42 µM (inactive)
O=C(COC(=O)c1ccccc1SCC(=O)N1CCCC1)NC1CCCCC1	> 42 µM (inactive)
COc1ccccc1NC(=O)CN(c1ccc(C)cc1)S(=O)(=O)c1c(C)n[nH]c1C	> 42 µM (inactive)
O=C1c2nccnc2C(=O)N1c1ccc(C(F)(F)F)cc1	> 42 µM (inactive)
Cc1c(C(=O)N2CCOCC2)c(S(=O)(=O)Nc2cccc(Br)c2)c(C)n1C	> 42 µM (inactive)
C=CC(=O)NC1CC2CCC1(C)C2(C)C (stereo unspecified)	> 42 µM (inactive)
CCNc1nc(NCC)nc(SCCOC(=O)Nc2ccccc2)n1	> 42 µM (inactive)
O=C(OCC#CCSc1nnc(-c2ccccc2)o1)c1cc2ccccc2o1	> 42 µM (inactive)
CC1(C(=O)Nc2cccc(-n3cnnn3)c2)Cc2ccccc2C(=O)O1 (stereo unspecified)	> 42 µM (inactive)
CCn1c(SCc2nc3ccccc3s2)nnc1-c1ccccc1	> 42 µM (inactive)
CCN(CC)CCCN1C(=O)C(=O)/C(=C(/O)c2ccccc2)C1c1cc(OC)ccc1OC (stereo unspecified)	> 42 µM (inactive)
Cc1nc(CCNC(=O)c2ccccc2)cs1	> 42 µM (inactive)
COc1ccc(C(=O)N/C(=C\c2cc(OC)c(OC)cc2[N+](=O)[O-])C(=O)NCCO)cc1	> 42 µM (inactive)
CCOC(=O)Cn1c(C)c(Br)c(=O)c2cccc(C)c21	> 42 µM (inactive)
CC(=O)N1CCc2cc(S(=O)(=O)NCCC3=CCCCC3)ccc21	> 42 µM (inactive)
CSc1cc(C)c(OCC(=O)Nc2c(C)nn(C)c2C)c(C)c1	> 42 µM (inactive)
Cc1nnc(N=c2ssnc2Cl)o1	> 42 µM (inactive)
O=C(CN1C(=O)NC2(CCCC2)C1=O)Nc1nc2ccccc2[nH]1	> 42 µM (inactive)
O=C(c1cn(-c2ccccc2)nc1-c1cccs1)N1CCOCC1	> 42 µM (inactive)
Cc1cccc(NC(=S)NCc2ccco2)c1C	> 42 µM (inactive)
